Structures can show the parent of a compound that is named as a salt.
Target: T1, Dopamine receptor D2 (Homo sapiens, UniProt P14416)
T1 construct: expressed in transfected cells
Assay: PDSP secondary radioligand binding assay
Experimental: Primary and secondary radioligand binding assays are performed. In general, the primary assay is run at very high ligand (compound) concentration as a broad screen to determine whether a compound binds to a particular receptor. If greater than 50% inhibition at 10 μM (high concentration of compound) at a particular receptor is determined, a secondary assay is performed on that receptor. Data from the secondary assay is the binding affinity (Ki value).
This assay is used to test binding to receptors such as the serotonin receptors: 5-HT1A, 5-HT1B, 5-HT1D, 5-HT1E, 5-HT2A, 5-HT2B, 5-HT2C, 5-HT3, 5-HT5A, 5-HT6 and 5-HT7. The protocol is adapted from Roth et al. J. Pharmacol. Exp. Ther. 1986, 238, 480-485 and Roth et al. J. Pharmacol. Exp. Ther. 1994, 268, 1403-1410. The assay buffer is Standard Binding Buffer (50 mM Tris-HCl, 10 mM MgCl2, 0.1 mM EDTA, pH 7.4). The membrane fraction source is transiently or stably transfected cell lines (e.g., HEK293, COS, CHO, NIH3T3).
A solution of the compound to be tested is prepared as a 1 mg/mL stock in Standard Binding Buffer or DMSO according to its solubility. A similar stock of a reference compound (positive control) is also prepared.
Radioligand (see Table 41) is diluted to five times the assay concentration (see Table 21) in Standard Binding Buffer. […]
The 250 μL reactions are incubated at room temperature and shielded from light (to prevent photolysis of light-sensitive ligands) for 1.5 hours, then harvested by rapid filtration onto Whatman GF/B glass fiber filters pre-soaked with 0.3% polyethyleneimine using a 96-well Brandel harvester. […] The tubes are capped, labeled, and counted by liquid scintillation counting. For higher throughput assays, bound radioactivity is harvested onto 0.3% polyethyleneimine-treated, 96-well filter mats using a 96-well Filtermate harvester. The filter mats are dried, then scintillant is melted onto the filters, and the radioactivity retained on the filters is counted in a Microbeta scintillation counter. […]

T1 sequence (P14416 whole entry): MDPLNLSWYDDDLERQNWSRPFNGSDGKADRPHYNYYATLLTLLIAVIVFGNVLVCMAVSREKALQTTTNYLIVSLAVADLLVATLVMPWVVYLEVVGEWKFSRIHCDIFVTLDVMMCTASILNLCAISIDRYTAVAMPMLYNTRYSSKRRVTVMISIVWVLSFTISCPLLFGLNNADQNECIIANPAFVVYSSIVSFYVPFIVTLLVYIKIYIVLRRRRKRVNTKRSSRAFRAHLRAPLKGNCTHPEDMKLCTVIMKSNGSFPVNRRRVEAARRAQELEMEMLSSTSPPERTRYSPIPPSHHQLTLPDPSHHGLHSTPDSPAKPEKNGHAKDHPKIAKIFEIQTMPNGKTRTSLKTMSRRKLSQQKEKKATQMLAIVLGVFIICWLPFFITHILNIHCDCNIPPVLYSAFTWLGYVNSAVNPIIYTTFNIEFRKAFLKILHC

| SMILES | Ki |
| --- | --- |
| CCCOc1cc2c(cn1)[nH]c1ccncc12 [Compound 2, 8-Propoxypyridino[4′,3′-5,4]pyrrolo[3,2-c]pyridine hydrochloride] | > 10 µM |
| CCCOc1cc2c(cn1)[nH]c1cnccc12 [Compound 4, 3-Propoxy pyridino[4′,3′-4,5]pyrrolo[2,3-c]pyridine hydrochloride] | > 10 µM |

Source: patent US8268854B2, “Aza-beta-carbolines and methods of using same” (The UWM Research Foundation, Inc., priority 2008, dated 2012)
